In one series the test system is S. aureus F-3095. Put plainly: Susceptibility test 1: MIC by micro-dilution method. To be noted: Staphylococcus aureus. Format: cell-based. On the procedure: (§1) Test substances were initially dissolved in dimethylsulfoxide. Antibacterial activities (MICs) of the same compounds were determined by the micro-dilution method as recommended by the Japanese Society of Chemotherapy.
(§2) The bacteria cultured on Mueller-Hinton agar (MHA) plates at 35° C. overnight were suspended in sterile physiological saline in a concentration that was equivalent to 0.5 McFarland. The bacterial inoculum was prepared by 10-fold dilution of this suspension. Approximately 0.005 mL of the bacterial inoculum was inoculated into Cation-adjusted Mueller-Hinton broth (CAMHB, 100 μL/well) containing the test substance and was incubated at 35° C. overnight. The lowest concentration of the test substance at which no bacterial growth was macroscopically observed was determined as the MIC.
(In general: In broth dilution the organism is exposed to a series of concentrations in liquid medium.)

Another series deals with S. aureus FDA209P. The series is described as above. The series is classed as cell-based. The conditions noted are these: Staphylococcus aureus, read-out: MIC (μg/mL) S. aureus FDA209P. Here is the method: as §1, §2
The subject of series [1] is Staphylococcus aureus (S. aureus Smith). The experiment in a line: S. aureus infection experiment in mice. The series is classed as in vivo. To be noted: ICR mice, five per group, intraperitoneal infection, 1 hour after infection. Here is the method:
ICR mice (male, SPF grade, 4-week old, five mice per group) were used. A bacterial inoculum was prepared by suspending Staphylococcus aureus (S. aureus
Smith), which was cultured on a Mueller-Hinton agar plate at 37° C. overnight, in sterile physiological saline, preparing a bacterial solution of about 4×10^8 CFU/mL, and diluting the solution 10-fold in 5.6% mucin-phosphate buffer. ICR mice were intraperitoneally administered with the bacterial inoculum (approximately 2×10^7 CFU/mouse) to induce infection. Test substances were dissolved in 10% hydroxypropyl-β-cyclodextrin and 0.05 mol/L hydrochloric acid. […] The number of surviving mice was recorded on 5 days after the infection.

The nature of a further series: Cytotoxicity test (XTT). The series is classed as cell-based. To be noted: African green monkey, vero cells, 3 days incubation, absorbance 450 nm, read-out: CC50 (concentration when cell proliferation was inhibited by 50%). On the procedure:
Each test substance was dissolved in dimethyl sulfoxide and was prepared to each concentration with E-MEM containing 10% FBS, and then 0.1 mL of this solution was dispensed into each well of a 96-well microplate. A vero cell suspension containing 3×10^4 cells/mL was prepared with E-MEM containing 10% FBS, and 0.1 mL of the suspension was inoculated to each well. After incubation in 5% CO2 at 37° C. for 3 days, 50 μL of E-MEM containing 1 mg/mL of 2,3-bis-(2-methoxy-4-nitro-5-sulfophenyl)-5-[(phenylamino)carbonyl]-2H-tetrazolium, inner salt, monosodium salt (XTT) and 25 μM of phenazine methosulfate (PMS) was added to each well. After about 2 hours, the absorbance at 450 nm was measured with a microplate reader.
The absorbance ratio of each well supplied with the test substance and the control not containing the test substance was calculated, and the concentration of each compound when cell proliferation was inhibited by 50% (CC50; μg/mL) was calculated.
In general terms: Formazan colour is commonly taken as a measure of viable cells.

Series [2] is described as follows: Antimicrobial activity (general statement). The conditions noted are these: qualitative statement, no comparator named.
Series [3] is described as follows: Safety (general statement). To be noted: qualitative statement, no comparator named. From the text:
The compound of the general formula [1] of the present invention has excellent safety. The safety can be evaluated by various tests, for example, by various types of safety tests selected from a cytotoxicity test, a selectivity test against DNA gyrase of human and various bacteria, a selectivity test against topoisomerase IV of human and various bacteria, an hERG test, a repeat-dose toxicity test, a cytochrome P450 (CYP) activity inhibition test, a metabolic dependence inhibition test, an in vivo mouse micronucleus test, an in vivo rat liver UDS test, and the like.

Series [4] can be described thus: Metabolic stability (general statement). The series is classed as in vitro ADME. The conditions noted are these: qualitative statement, no comparator named. From the text:
The compound of the general formula [1] of the present invention has excellent metabolic stability. The metabolic stability can be evaluated by various tests, for example, by various types of stability tests selected from a human liver microsome metabolic stability test, a human S9 stability test, and the like.

Series [5] in a line: Tissue distribution (general statement). The conditions noted are these: qualitative statement, no comparator named.
Series [6] in a line: Hygroscopicity of the salt (statement). Format: physicochemical. To be noted: trihydrochloride salt.
[7] abbreviates: F3095, read-out: MIC (μg/mL) S. aureus F-3095.
Where [8] appears, read: F3095, F-3095 (MDRSA), CAMHB, 35° C. overnight, lowest concentration with no macroscopic growth, read-out: MIC (μg/mL) S. aureus F-3095.
[9] abbreviates: CAMHB, 35° C. overnight, lowest concentration with no macroscopic growth.

Consider 14 compounds from patent publication US8367831B2, “Heterocyclic compound or salt thereof and intermediate thereof” (priority 2006, dated 2013).

In brackets after ≈: the same amount, converted by molar mass. Where a name gives a salt, the structure may show the parent alone. Read-outs that look alike come from different tables or passages of the source. A value given as a limit tells only on which side of the number the result lay.

For `COc1cnc2ccc(=O)n(CCN3CCC(NCc4cc5c(cn4)OCCO5)CC3)c2n1` [Example 85, 5-(2-(4-((2,3-dihydro(1,4)dioxino(2,3-c)pyridin-7-ylmethyl)amino)piperidin-1-yl)ethyl-3-methoxypyrido(2,3-b)pyrazin-6(5H)-one hydrochloride], the MIC with S. aureus F-3095 (setting [7]) and in the series with S. aureus FDA209P was 0.0313 µg/mL each time. Also, the “number of surviving mice on 5 days after the infection” value (shortened to “number of surviving mice on 5 days”) in [1] (1 mg/kg subcutaneously once) was “four mice out of five”. Also, the CC50 at 3 days in “Cytotoxicity test (XTT)” was not below 51.2 µg/mL. Besides, the antimicrobial activity entry in series [2] is “higher”. Also, the safety result in series [3] is “higher”. In series [4], the metabolic stability entry is “higher”. In addition, the tissue distribution result in series [5] is “higher”.

In the case of `COc1cnc2ccc(=O)n(CCN3CCC(NCc4cc5c(cn4)OCCO5)CC3)c2c1` [Example 2, 1-(2-(4-((2,3-dihydro(1,4)dioxino(2,3-c)pyridin-7-ylmethyl)amino)piperidin-1-yl)ethyl)-7-methoxy-1,5-naphthyridin-2(1H)-one hydrochloride], the MIC with S. aureus F-3095 (setting [7]) and with S. aureus FDA209P was 0.0313 µg/mL in each case. Besides, the “number of surviving mice on 5 days” value in [1] (3 mg/kg subcutaneously once) is “all mice”. The CC50 at 3 days in the series “Cytotoxicity test (XTT)” is not below 51.2 µg/mL. Besides, the antimicrobial activity result in [2] is “higher”. In series [3], the safety result is given as “higher”. In addition, in [4], the metabolic stability entry is given as “higher”. In addition, the tissue distribution entry in series [5] was “higher”.

As to `COc1cnc2ncc(=O)n(CCN3CCC(NCc4cc5c(cn4)OCCO5)CC3)c2c1` [Example 68, 1-(2-(4-((2,3-dihydro(1,4)dioxino(2,3-c)pyridin-7-ylmethyl)amino)piperidin-1-yl)ethyl)-7-methoxypyrido(2,3-b)pyrazin-2(1H)-one hydrochloride], the “number of surviving mice on 5 days” value in series [1] (3 mg/kg subcutaneously once) is reported as “all mice”. The CC50 at 3 days in the series “Cytotoxicity test (XTT)” is not below 51.2 µg/mL.

For `COc1cnc2ccc(=O)n(CCN3CCC(NCc4cc(-c5ccco5)on4)CC3)c2c1` [Example 140, 1-(2-(4-(((5-(2-furyl)isoxazol-3-yl)methyl)amino)piperidin-1-yl)ethyl)-7-methoxy-1,5-naphthyridin-2(1H)-one], the MIC with S. aureus F-3095 (setting [8]) and in the series on S. aureus FDA209P (setting [9]) was 0.0156 µg/mL (≈ 0.0347 µM) each time. Also, the “number of surviving mice on 5 days” value in series [1] (3 mg/kg subcutaneously once) is on record as “all mice”.

With `O=c1ccc2ncc(F)cc2n1CCN1CCC(NCc2cc3c(cn2)OCCC3)CC1` [Example 103, 1-(2-(4-((3,4-dihydro-2H-pyrano(2,3-c)pyridin-6-ylmethyl)amino)piperidin-1-yl)ethyl)-7-fluoro-1,5-naphthyridin-2(1H)-one hydrochloride], the MIC with S. aureus F-3095 (setting [7]) and in the series with S. aureus FDA209P was 0.0625 µg/mL throughout. For the same compound, the “number of surviving mice on 5 days” value in [1] (3 mg/kg subcutaneously once) was “all mice”. Moreover, the CC50 at 3 days in “Cytotoxicity test (XTT)” was not below 51.2 µg/mL.

As for `O=c1ccc2ncc(Cl)cc2n1CCN1CCC(NCc2cc3c(cn2)OCCO3)CC1` [Example 77, 7-chloro-1-(2-(4-((2,3-dihydro(1,4)dioxino(2,3-c)pyridin-7-ylmethyl)amino)piperidin-1-yl)ethyl)-1,5-naphthyridin-2(1H)-one hydrochloride], the results for the MIC in the series on S. aureus F-3095 (setting [7]) and in the series with S. aureus FDA209P were 0.0625 µg/mL and 0.0313 µg/mL, respectively. The “number of surviving mice on 5 days” value in [1] (3 mg/kg subcutaneously once) is on record as “all mice”. Further, the CC50 at 3 days in the series “Cytotoxicity test (XTT)” is not below 51.2 µg/mL. For the same compound, the antimicrobial activity result in [2] is given as “higher”. The safety entry in series [3] is recorded as “higher”. Also, in series [4], the metabolic stability result is reported as “higher”. Also, the tissue distribution result in series [5] was “higher”.

Turning to `O=c1ccc2ncc(F)cc2n1CCN1CCC(NCc2cc3c(cn2)OCCO3)CC1` [Example 4, 1-(2-(4-((2,3-dihydro(1,4)dioxino(2,3-c)pyridin-7-ylmethyl)amino)piperidin-1-yl)ethyl)-7-fluoro-1,5-naphthyridin-2(1H)-one hydrochloride], the MIC in the series with S. aureus F-3095 (setting [7]) and in the series with S. aureus FDA209P was 0.0313 µg/mL throughout. For the same compound, the “number of surviving mice on 5 days” value in [1] (3 mg/kg subcutaneously once) was “all mice”. The CC50 at 3 days in “Cytotoxicity test (XTT)” was not below 51.2 µg/mL. Besides, the antimicrobial activity entry in series [2] was “higher”. In addition, the safety entry in series [3] is on record as “higher”. In [4], the metabolic stability entry is “higher”. For the same compound, the tissue distribution entry in series [5] is “higher”.

As for `COc1cnc2c(C)cc(=O)n(CCN3CCC(NCc4cc5c(cn4)OCCO5)CC3)c2c1` [Example 149, 1-(2-(4-((2,3-dihydro(1,4)dioxino(2,3-c)pyridin-7-ylmethyl)amino)piperidin-1-yl)ethyl)-7-methoxy-4-methyl-1,5-naphthyridin-2(1H)-one hydrochloride], the MIC in the series with S. aureus F-3095 (setting [7]) and with S. aureus FDA209P was 0.0313 µg/mL throughout. Further, in series [1] (3 mg/kg subcutaneously once), the “number of surviving mice on 5 days” value is “all mice”.

In the case of `COc1cnc2ccc(=O)n(CCN3CCC(NCc4cc5c(cn4)OCCO5)[C@H](O)C3)c2c1` (stereo in doubt) [Example 95, 1-(2-((3R,4R)-4-((2,3-dihydro(1,4)dioxino(2,3-c)pyridin-7-ylmethyl)amino)-3-hydroxypiperidin-1-yl)ethyl)-7-methoxy-1,5-naphthyridin-2(1H)-one], the MIC was found to be 0.0625 µg/mL (≈ 0.134 µM) in the series with S. aureus F-3095 (setting [7]) and 0.0313 µg/mL (≈ 0.0669 µM) in the series on S. aureus FDA209P. Besides, in the series “Cytotoxicity test (XTT)”, the CC50 at 3 days is not below 51.2 µg/mL.

For `Cc1ccc(CNC2CCN(CCn3c(=O)ccc4ccncc43)CC2)cc1F` [Example 8, 1-(2-(4-((3-fluoro-4-methylbenzyl)amino)piperidin-1-yl)ethyl)-1,7-naphthyridin-2(1H)-one hydrochloride], the MIC with S. aureus F-3095 (setting [7]) and with S. aureus FDA209P was 0.0313 µg/mL throughout. In addition, the CC50 at 3 days in the series “Cytotoxicity test (XTT)” was not below 51.2 µg/mL.

With `COc1cnc2ccc(=O)n(CCN3CCC(NCc4cnc(C)c(F)c4)CC3)c2c1` [Example 93, 1-(2-(4-(((5-fluoro-6-methylpyridin-3-yl)methyl)amino)piperidin-1-yl)ethyl)-7-methoxy-1,5-naphthyridin-2(1H)-one], the MIC was determined as 0.0313 µg/mL (≈ 0.0736 µM) in the series with S. aureus F-3095 (setting [8]) and 0.0625 µg/mL (≈ 0.147 µM) in the series on S. aureus FDA209P (setting [9]). Moreover, the “number of surviving mice on 5 days” value in [1] (3 mg/kg subcutaneously once) is “all mice”. In “Cytotoxicity test (XTT)”, the CC50 at 3 days was not below 51.2 µg/mL.

Consider `Cl.Cl.Cl.O=c1ccc2ncc(F)cc2n1CCN1CCC(NCc2cc3c(cn2)OCCO3)CC1` [1-(2-(4-((2,3-dihydro(1,4)dioxino(2,3-c)pyridin-7-ylmethyl)amino)piperidin-1-yl)ethyl)-7-fluoro-1,5-naphthyridin-2(1H)-one trihydrochloride], for which the hygroscopicity result in [6] is “nonhygroscopic”.

On to `O=c1ccc2ncc(OC(F)F)cc2n1CCN1CCC(NCc2cc3c(cn2)OCCO3)CC1` [Example 151, 7-(difluoromethoxy)-1-(2-(4-((2,3-dihydro(1,4)dioxino(2,3-c)pyridin-7-ylmethyl)amino)piperidin-1-yl)ethyl)-1,5-naphthyridin-2(1H)-one hydrochloride], for which the MIC amounted to 0.125 µg/mL in the series with S. aureus F-3095 (setting [7]) and 0.0313 µg/mL with S. aureus FDA209P. The “number of surviving mice on 5 days” value in [1] (3 mg/kg subcutaneously once) is listed as “all mice”.

Turning to `COc1cnc2ccc(=O)n(CCC3(O)CCC(NCc4cc5c(cn4)OCCO5)CC3)c2n1` (stereo not shown) [Example 119B, 5-(2-(4-((2,3-dihydro(1,4)dioxino(2,3-c)pyridin-7-ylmethyl)amino)-1-hydroxycyclohexyl)ethyl)-3-methoxypyrido(2,3-b)pyrazin-6(5H)-one], the MIC in the series with S. aureus F-3095 (setting [8]) and with S. aureus FDA209P (setting [9]) was 0.0625 µg/mL (≈ 0.134 µM) each time. Further, in [1] (3 mg/kg subcutaneously once), the “number of surviving mice on 5 days” value was “all mice”.
